# Assay results published in US5489524A, “Chimeric protein that has a human Rho motif and deoxyribonuclease activity” (The United States of America as represented by the …, priority 1992, dated 1996).
# System: Mammalian Endo-Exonuclease
# Experiment: ss- and ds-DNase activities of the purified endo-exonuclease with divalent metal ions, NaCl, ATP or GTP (release of acid-soluble radioactivity from 32P-labeled pBR322 DNA)
# Format: biochemical, Monkey
# Conditions: for Activity % ds-DNase / Activity % ss-DNase: 37° C.
# Protocol: The assay mixture contained 100 mM Tris-HCl pH 8.0, 10 mM MgCl2, and 17 μg of ^32 P-labelled linearized plasmid DNA. One unit of activity is defined as the amount of deoxyribonuclease which renders 1 μg of DNA acid-soluble in 30 min at 37° C. The plasmid was labeled using a random oligo-priming kit (Pharmacia Fine Chemical).
# The ratios are calculated with respect to the activity of 10 mM Mg^2+ (100%).
# The nuclease activities of putative recombination nucleases of E. coli are known to be affected by ATP. Moreover S. cerevisiae endo-exonuclease is believed to contain a region homologous to GTP-binding sites. The effects of ATP and GTP on the purified mammalian endo-exonuclease were therefore chosen to study.
# [1] = 0.1 mM nucleotide added, 10 mM Mg^2+
# [2] = 1.0 mM nucleotide added, 10 mM Mg^2+
# [3] = metal ion 0.5 mM, activity with 10 mM Mg^2+ = 100%
# [4] = metal ion 5.0 mM, activity with 10 mM Mg^2+ = 100%
# [5] = metal ion 10.0 mM, reference = 100%
# [6] = metal ion […], activity with 10 mM Mg^2+ = 100%
# [7] = metal ion 1.0 mM, activity with 10 mM Mg^2+ = 100%
# [8] = metal ion 0.1 mM, activity with 10 mM Mg^2+ = 100%
Ratio of Activities for ss/ds-DNase (metal ion 0.5 mM),Activity % ds-DNase [3],Activity % ss-DNase [3],Activity % ss-DNase [4],Activity % ds-DNase [6],Activity % ss-DNase [6],ability to replace Mg^2+ as cofactor,concentration with inhibitory effects on the nuclease activities,Activity % ss-DNase [7],other results,Compound
–,–,–,–,–,–,–,–,–,effect on ds-DNase activity (0.1 mM): slight enhancement of ds-DNase activity; Activity % ds-DNase [1]: 112%; Activity % ss-DNase [1]: 85%; Activity % ds-DNase [2]: 73%; Activity % ss-DNase [2]: 68%; effect on ss-DNase and ds-DNase activities (0.1-1.0 mM): slightly inhibited,Nc1nc2c(ncn2[C@@H]2O[C@H](COP(=O)(O)OP(=O)(O)OP(=O)(O)O)[C@@H](O)[C@H]2O)c(=O)[nH]1 [GTP]
2.2,128%,217%,173%,168%,203%,–,–,–,optimal concentration for ds-DNase: 2.5 mM; optimal concentration for ss-DNase: 0.5 mM; Activity % ds-DNase [4]: 120%; Ratio of Activities for ss/ds-DNase (metal ion 10.0 mM): 1.3; Activity % ds-DNase [5]: 100%; Activity % ss-DNase [5]: 100%,[Mg+2] [Mg^2+]
1.7,195%,258%,0%,0%,0%,partially substitute for Mg^2+,≥ 2.0 mM,215%,"Ratio of Activities for ss/ds-DNase (metal ion 1.0 mM): 1.4; Activity % ds-DNase [7]: 212%; Activity % ss-DNase (metal ion 2.0 mM, activity with 10 mM Mg^2+ = 100%): 0%",[Mn+2] [Mn^2+]
–,0%,0%,–,0%,0%,partially substitute for Mg^2+,≥ 0.25 mM,0%,Activity % ds-DNase [8]: 70%; Activity % ss-DNase [8]: 75%,[Zn+2] [Zn^2+]
